{"source": "patent US20240366539A1", "about": "“METHODS FOR TREATING AUTISM SPECTRUM DISORDERS” (INSTITUT NATIONAL DE LA SANTÉ ET DE LA RECHERCHE MÉDICALE, priority 2021, published 2024)", "key": {"[1]": {"system": "Shank3^Δex13-16−/− mice", "assay": "Marble-burying", "assay_type": "in vivo, mouse", "details": "Shank3Δex13-16−/− and WT mice, chronic NaBr 250 mg/kg once daily", "description": "(§1) Mice were treated with vehicle (NaCl 0.9%; ip, 10 or 20 ml/kg), NaBr (Sigma-Aldrich, Saint-Quentin Fallavier, France) administered either chronically (once a day, 10, 30, 70, 125, 250 and 500 mg/kg; i.p. or per os, in a volume of 20 ml/kg—except for combination with VU0155041: […]) or acutely (250 mg/kg, 20 ml/kg), KBr (Sigma-Aldrich, Saint-Quentin Fallavier, France; 145 mg/kg; i.p., 20 ml/kg), bumetanide (R&D systems, Minneapolis, USA, 0.5 and 2 mg/kg; i.p., 20 ml/kg) or VU0155041 (Cayman Chemicals, Ann Arbor, USA, once a day, i.p., 1 mg/kg, 10 ml/kg). […] When treatment was given chronically, behavioral testing started 8 days after beginning of daily administration. Treatment was maintained for 8 to 18 consecutive days (see timelines in FIGS. 1 and 4), allowing thorough behavioral phenotyping. On testing days, or when treatment was given acutely, drugs (or vehicle) were administered 30 min before behavioral assays.\n(§2) Marble-burying. Marble burying was used as a measure of perseverative behavior (68). Mice were introduced individually in transparent cages (21×11×17 cm) containing 20 glass marbles (diameter: 1.5 cm) evenly spaced on 4-cm deep fresh sawdust. To prevent escapes, each cage was covered with a filtering lid. Light intensity in the room was set at 40 lux. The animals were removed from the cages after 15 min, and the number of marbles buried more than half in sawdust was quoted.\n(§3) To this purpose, we evaluated the effects of chronic NaBr administration at the dose of 250 mg/kg on autism-sensitive behaviors in these lines (FIG. 3A)."}, "[2]": {"system": "Fmr1^−/− mice", "assay": "Marble-burying", "assay_type": "in vivo, mouse", "details": "Fmr1+/+ and Fmr1−/− mice; chronic NaBr 250 mg/kg once daily", "description": "as §1, §2, §3"}, "[3]": {"target": "T1, rat mGlu4 receptor (Rattus norvegicus, UniProt P31423)", "T1 construct": "expressed in transfected cells", "T1 sequence (P31423 33-912)": "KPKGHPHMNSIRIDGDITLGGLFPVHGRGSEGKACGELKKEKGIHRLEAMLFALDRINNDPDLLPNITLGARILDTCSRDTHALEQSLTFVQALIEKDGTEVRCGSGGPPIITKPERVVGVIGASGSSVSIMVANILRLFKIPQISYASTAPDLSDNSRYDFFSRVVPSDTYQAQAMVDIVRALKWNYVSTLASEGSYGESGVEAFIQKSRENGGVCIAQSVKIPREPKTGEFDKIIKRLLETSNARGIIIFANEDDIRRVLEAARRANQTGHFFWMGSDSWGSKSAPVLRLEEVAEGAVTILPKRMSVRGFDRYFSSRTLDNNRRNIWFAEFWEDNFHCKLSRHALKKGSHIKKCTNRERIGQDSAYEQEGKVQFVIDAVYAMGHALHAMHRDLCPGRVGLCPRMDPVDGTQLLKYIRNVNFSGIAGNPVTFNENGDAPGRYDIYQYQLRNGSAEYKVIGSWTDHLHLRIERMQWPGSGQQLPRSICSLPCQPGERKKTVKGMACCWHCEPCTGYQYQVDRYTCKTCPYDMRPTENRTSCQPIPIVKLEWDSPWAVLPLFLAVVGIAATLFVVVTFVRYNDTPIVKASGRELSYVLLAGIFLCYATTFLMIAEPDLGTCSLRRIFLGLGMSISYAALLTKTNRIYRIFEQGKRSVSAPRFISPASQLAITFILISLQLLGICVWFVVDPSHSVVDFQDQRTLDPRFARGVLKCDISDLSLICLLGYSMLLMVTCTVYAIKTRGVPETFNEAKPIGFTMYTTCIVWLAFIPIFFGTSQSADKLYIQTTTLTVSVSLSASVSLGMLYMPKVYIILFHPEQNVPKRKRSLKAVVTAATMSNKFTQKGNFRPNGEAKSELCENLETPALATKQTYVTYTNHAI", "assay": "Calcium mobilization assay, mGlu4 signaling under glutamate stimulation", "assay_type": "cell-based", "description": "Human embryonic kidney (HEK) 293 cells were transiently transfected with rat mGlu4 receptor by electroporation together with a chimeric Gi/Gq protein to allow phospholipase activation and EAAC1, a glutamate transporter, to avoid influence of extracellular glutamate. For calcium mobilization, cells were seeded in a PLO-coated, black-walled, clear-bottomed. 96-well plate (Greiner Bio-One) at the density of 100,000 cells per well and for IPOne assay in a PLO-coated black 96-well plate (Greiner Bio-One) at the density of 50,000 cells per well. Cells were cultured in DMEM (Gibco™, Life Technologies), supplemented with 10% fetal bovine serum. Medium was changed by GlutaMAX (Gibco™, Life Technologies) to reduce extracellular glutamate concentration 3 h before experiment.\nChloride and bromide ion concentrations in the buffers used for in vitro experiments were chosen for best matching physiological conditions. It was previously shown that the total amount of halogen (chloride and bromide ions) in the cerebrospinal fluid and serum can reach 120-130 mM (69, 70) and that bromide is able to substitute up to 30% of chloride concentration (71), leading to a theoretical concentration of 91 mM chloride and 36 mM bromide. We thus chose the dose of 100 mM chloride as physiological control (complemented with gluconate NaC6H11O7 to maintain equivalent osmolarity between buffers (56)), and added or not 50 mM chloride or bromide to assess their effects in vitro. Chemicals were purchased from Sigma-Aldrich (Merck, L'Isle D'Abeau Chesnes, France). The pH of all buffers was adjusted to 7.4 before experiments. […]\nCalcium mobilization assay: 24 h after transfection, cells were loaded with 1 μM calcium-sensitive fluorescent dye (Fluo-4 AM; Invitrogen, Life Technologies) diluted in fresh C1^− buffer (154.6 mM) for 1 h at 37° C. and 5% CO2. […] Ca^2+ release was determined using μCell FDSS (Hamamatsu Photonics). Fluoresence was recorded for 60 s at 480 nm excitation and 540 nm emission after 20 s record of baseline.\nData were analyzed using Prism 6 software (GraphPad Software, San Diego, CA, USA). […] Statistical differences between pEC50, ΔpEC50 and Emax were determined using a one-way analysis of variance followed by Tukey's post-test.\nWe measured mGlu4 signaling under glutamate stimulation in HEK293T cells transiently expressing mGlu4 receptors and Gαqi9, a Gi/Gq chimeric G-protein (57) that allows mGlu4 to activate the phosphoinositide pathway. Receptor activation was then evaluated by measuring intracellular Ca^2+ release or inositol monophosphate (IP1, FIG. 5A). […]"}, "[4]": {"system": "Oprm1^−/− mice", "assay": "Tail-immersion test", "assay_type": "in vivo, mouse", "details": "50° C., NaBr 70 mg/kg, VU0155041 1 mg/kg, alone or combined, chronic", "description": "as §1\nTail-immersion test. Nociceptive thresholds were assessed by immersing the tail of the mice (5 cm from the tip) successively into water baths at 48° C., 50° C. and 52° C. The latency to withdraw the tail was measured at each temperature, with a cutoff of 10 s."}}, "data": [{"smiles": "[Br-].[Na+]", "note": "[NaBr, sodium bromide]", "values": [{"measurement": "marble burying", "setting": "[1]", "result": "had no effect on reduced burying in Shank3^Δex13-16−/− mice"}, {"measurement": "marble burying", "setting": "[1]; listed as bromide", "result": "decreased burying in both mutant and WT mice"}, {"measurement": "number of buried marbles", "setting": "[2]", "result": "reduced the number of buried marbles in both Fmr1^+/+ and Fmr1^−/− mice"}, {"measurement": "increase in glutamate pEC50", "setting": "[3]; HEK293 cells, mGlu4 + Gαqi9, addition of 50 mM bromide versus physiological chloride (100 mM Cl− + 50 mM gluconate)", "result": "0.73±0.05", "unit": "log"}, {"measurement": "ΔpEC50 of glutamate, bromide versus equivalent concentration of chloride", "setting": "[3]; HEK293 cells, mGlu4 + Gαqi9, compared with +50 mM Cl−", "result": "0.27±0.04"}, {"measurement": "rise in maximal mGlu4-triggered calcium release (Emax)", "setting": "[3]; HEK293 cells, mGlu4 + Gαqi9, glutamate, bromide versus physiological chloride", "result": "65±9", "unit": "%"}, {"measurement": "modulation of mGlu4 (PAM behaviour)", "setting": "[3]; calcium mobilization assay, 100 mM Cl− + 50 mM Br−, broader effects than chloride ions on pEC50 and Emax", "result": "behave as PAM of mGlu4"}, {"measurement": "flicking latency (nociceptive threshold)", "setting": "[4]", "result": "ineffective"}]}]}
